This passage reports IC50 results from patent US9233983B2, “Substituted hetero-bicyclic compounds, compositions and medicinal applications thereof” (ADVINUS THERAPEUTICS LIMITED, priority 2012, dated 2016).

Test [1] has as its target human Bruton's Tyrosine Kinase (Btk) (Homo sapiens (Human), UniProt Q06187). As to the kind of experiment: Recombinant Human Bruton's Tyrosine Kinase (Btk) Inhibition Assay (HTRF KinEASE-TK). The format is biochemical. To be noted: 20 ng/ml rhBtk, 77 μM ATP (KM), 1 μM TK-Biotin substrate, 90 min; read-out: hBTK IC50. Background: TR-FRET usually uses a lanthanide donor and a delayed reading to cut background.

Another test concerns mouse splenocytes. Briefly: Inhibition of B Cell Activation as Measured by CD69 Expression in Mouse Splenocytes. Type of test: cell-based. The settings on record: Splenocyte. The method, boiled down:
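Total mouse splenocytes pre-incubated with compounds (half-log dilutions; DMSO 200× stocks from 2 mM) 30 min at 37 °C, then stimulated with 3 ug/mL anti-mouse IgM for 18-20 hrs. CD69+ cells within CD19+ B cells quantified by flow cytometry; IC50 from variable-slope sigmoid dose-response fit.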

The mark [2] stands for this setting: C57/BL6 splenocytes, 3 ug/mL goat anti-mouse IgM, 18-20 hrs, CD69+ve cells within CD19, read-out: Mouse spleenocyte IC50.

SMILES strings stand for the structures. Read-outs that look alike come from different tables or passages of the source. Some results are limits rather than exact numbers.

Sequence of human Bruton's Tyrosine Kinase (Btk) (Q06187 whole entry): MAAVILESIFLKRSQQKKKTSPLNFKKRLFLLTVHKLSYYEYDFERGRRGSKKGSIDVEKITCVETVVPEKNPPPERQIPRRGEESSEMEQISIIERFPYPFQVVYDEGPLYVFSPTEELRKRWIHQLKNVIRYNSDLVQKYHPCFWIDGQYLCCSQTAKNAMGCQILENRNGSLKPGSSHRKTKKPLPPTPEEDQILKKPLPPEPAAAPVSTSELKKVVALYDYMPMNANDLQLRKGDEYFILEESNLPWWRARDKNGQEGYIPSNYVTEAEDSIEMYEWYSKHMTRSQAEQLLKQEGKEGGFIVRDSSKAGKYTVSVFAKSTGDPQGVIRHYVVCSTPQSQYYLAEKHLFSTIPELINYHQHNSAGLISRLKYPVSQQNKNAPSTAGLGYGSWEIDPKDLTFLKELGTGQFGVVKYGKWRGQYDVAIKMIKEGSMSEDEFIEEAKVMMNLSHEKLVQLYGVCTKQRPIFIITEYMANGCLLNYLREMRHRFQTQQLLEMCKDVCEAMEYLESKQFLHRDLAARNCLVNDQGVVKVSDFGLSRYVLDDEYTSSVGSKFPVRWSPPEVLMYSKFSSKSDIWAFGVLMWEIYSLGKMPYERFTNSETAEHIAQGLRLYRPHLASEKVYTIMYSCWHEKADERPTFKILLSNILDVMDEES

Take `N#CC1CCN(Cc2ccc(-c3cc4c(-c5cccc(N6CCOc7cc(C8CC8)ccc7C6=O)c5CO)ncnc4[nH]3)cc2)CC1` [Example B-14, 1-[[4-[4-[3-(8-cyclopropyl-5-oxo-2,3-dihydro-1,4-benzoxazepin-4-yl)-2-(hydroxymethyl)phenyl]-7H-pyrrolo[2,3-d]pyrimidin-6-yl]phenyl]methyl]piperidine-4-carbonitrile]: the IC50 (commonly the concentration that inhibits the measured activity by half) in test [1] was 0.007 µM; in the test with mouse splenocytes (setting [2]), 96 nM.

On to `CN(C)C(=O)N1CC=C(c2cc3c(-c4cccc(N5CCOc6cc(C(C)(C)O)ccc6C5=O)c4CO)ccnc3[nH]2)CC1` [Example P-10, 4-[4-[2-(hydroxymethyl)-3-[8-(1-hydroxy-1-methyl-ethyl)-5-oxo-2,3-dihydro-1,4-benzoxazepin-4-yl]phenyl]-1H-pyrrolo[2,3-b]pyridin-2-yl]-N,N-dimethyl-3,6-dihydro-2H-pyridine-1-carboxamide], for which the figures for the IC50 (in test [1]; with mouse splenocytes (setting [2])) were 0.006 µM and 94 nM, respectively.

As to `CCN1CC(N2CC=C(c3cc4c(-c5cccc(N6CCOc7cc(C8CC8)cc(F)c7C6=O)c5CO)ccnc4[nH]3)CC2)C1` [Example R-2, 8-cyclopropyl-4-[3-[2-[1-(1-ethylazetidin-3-yl)-3,6-dihydro-2H-pyridin-4-yl]-1H-pyrrolo[2,3-b]pyridin-4-yl]-2-(hydroxymethyl)phenyl]-6-fluoro-2,3-dihydro-1,4-benzoxazepin-5-one], the results for the IC50 (in test [1]; in the test with mouse splenocytes (setting [2])) were 0.0015 µM and 21 nM, respectively.

Consider `O=C1c2ccc(C3CC3)cc2OCCN1c1cccc(-c2ncnc3[nH]c(-c4ccc(CN5CCOCC5)cc4)cc23)c1CO` [Example B-5, 8-cyclopropyl-4-[2-(hydroxymethyl)-3-[6-[4-(morpholinomethyl)phenyl]-7H-pyrrolo[2,3-d]pyrimidin-4-yl]phenyl]-2,3-dihydro-l,4-benzoxazepin-5-one], for which the IC50 in test [1] turned out to be 0.008 µM; in the test with mouse splenocytes (setting [2]) it was 60 nM.

In the case of `CN(C)C(=O)N1CC=C(c2cc3c(-c4cccc(N5CCOc6cc(C7CC7)ccc6C5=O)c4CO)ccnc3[nH]2)CC1` [Example P-5, 4-[4-[3-(8-cyclopropyl-5-oxo-2,3-dihydro-1,4-benzoxazepin-4-yl)-2-(hydroxymethyl)phenyl]-1H-pyrrolo[2,3-b]pyridin-2-yl]-N,N-dimethyl-3,6-dihydro-2H-pyridine-1-carboxamide], the results for the IC50 (in test [1]; with mouse splenocytes (setting [2])) were 0.002 µM and 14.6 nM, respectively.

Take `CC(C)N1CCN(Cc2ccc(-c3cc4c(-c5cccc(N6CCOc7cc(C8CC8)ccc7C6=O)c5CO)ccnc4[nH]3)nc2)CC1` [Example I-7, 8-cyclopropyl-4-[2-(hydroxymethyl)-3-[2-[5-[(4-isopropylpiperazin-1-yl)methyl]-2-pyridyl]-1H-pyrrolo[2,3-b]pyridin-4-yl]phenyl]-2,3-dihydro-1,4-benzoxazepin-5-one]: the IC50 was determined as 0.002 µM in test [1] and 21 nM with mouse splenocytes (setting [2]).

In the case of `O=C1c2ccc(C3CC3)cc2OCCN1c1cccc(-c2ccnc3[nH]c(-c4ccc(CN5CCN(C6CC6)CC5)cn4)cc23)c1CO` [Example I-5, 8-cyclopropyl-4-[3-[2-[5-[(4-cyclopropylpiperazin-1-yl)methyl]-2-pyridyl]-1H-pyrrolo[2,3-b]pyridin-4-yl]-2-(hydroxymethyl)phenyl]-2,3-dihydro-1,4-benzoxazepin-5-one], the IC50 was 0.003 µM in test [1] and 30 nM in the test with mouse splenocytes (setting [2]).

Take `CC1(O)CN(Cc2ccc(-c3cc4c(-c5cccc(N6CCOc7cc(C8CC8)ccc7C6=O)c5CO)ccnc4[nH]3)cc2)C1` [Example B-17]: the IC50 worked out at 0.006 µM in test [1] and 74 nM with mouse splenocytes (setting [2]).

Take `CN1CCN(Cc2ccc(-c3cc4c(-c5cccc(N6CCOc7cc(C8CC8)ccc7C6=O)c5CO)ncnc4[nH]3)cc2)CC1` [Example B-1, 8-cyclopropyl-4-[2-(hydroxymethyl)-3-[6-[4-[(4-methylpiperazin-1-yl)methyl]phenyl]-7H-pyrrolo[2,3-d]pyrimidin-4-yl]phenyl]-2,3-dihydro-1,4-benzoxazepin-5-one]: the IC50 in test [1] came to 0.006 µM; in the test on mouse splenocytes (setting [2]) it was 40 nM.

On to `O=C(CN1CCC1)N1CC=C(c2cc3c(-c4cccc(N5CCOc6cc(C7CC7)cc(F)c6C5=O)c4CO)ccnc3[nH]2)CC1` [Example P-28, 4-[3-[2-[1-[2-(azetidin-1-yl)acetyl]-3,6-dihydro-2H-pyridin-4-yl]-1H-pyrrolo[2,3-b]pyridin-4-yl]-2-(hydroxymethyl)phenyl]-8-cyclopropyl-6-fluoro-2,3-dihydro-1,4-benzoxazepin-5-one], for which the IC50 came to 0.0031 µM in test [1] and 63 nM in the test with mouse splenocytes (Mus musculus, read-out: Mouse spleenocyte IC50 (nM)).

On to `O=C1c2ccc(C3CC3)cc2OCCN1c1cccc(-c2ccnc3[nH]c(-c4cnn(C5COC5)c4)cc23)c1CO` [Example F-1, 8-cyclopropyl-4-[2-(hydroxymethyl)-3-[2-[1-(oxetan-3-yl)pyrazol-4-yl]-1H-pyrrolo[2,3-b]pyridin-4-yl]phenyl]-2,3-dihydro-1,4-benzoxazepin-5-one], for which the IC50 amounted to 0.003 µM in test [1] and 70 nM in the test on mouse splenocytes (setting [2]).

On to `Cc1c(-c2ncnc3[nH]c(-c4ccc(C(=O)N5CCNCC5)cc4)cc23)cccc1N1CCc2cc(C3CC3)ccc2C1=O` [Example K-19, 6-cyclopropyl-2-[2-methyl-3-[6-[4-(piperazine-1-carbonyl)phenyl]-7H-pyrrolo[2,3-d]pyrimidin-4-yl]phenyl]-3,4-dihydroisoquinolin-1-one], for which the values for the IC50 (in test [1]; in the test with mouse splenocytes (setting [2])) were 0.036 µM and greater than 1000 nM, respectively.

On to `CC1CN(Cc2ccc(-c3cc4c(-c5cccc(N6CCOc7cc(C8CC8)cc(F)c7C6=O)c5CO)ccnc4[nH]3)nc2)CC(C)N1C` (centres unmarked) [Example I-14, 8-cyclopropyl-6-fluoro-4-[2-(hydroxymethyl)-3-[2-[5-[(3,4,5-trimethylpiperazin-1-yl)methyl]-2-pyridyl]-1H-pyrrolo[2,3-b]pyridin-4-yl]phenyl]-2,3-dihydro-1,4-benzoxazepin-5-one], for which the IC50 was found to be 0.0017 µM in test [1] and 7.5 nM in the test on mouse splenocytes (setting [2]).

As for `Cc1c(-c2ncnc3[nH]c(-c4ccc(C(=O)N5CCC(O)CC5)cc4)cc23)cccc1N1CCc2cc(C3CC3)ccc2C1=O` [Example K-16, 6-cyclopropyl-2-[3-[6-[4-(4-hydroxypiperidine-1-carbonyl)phenyl]-7H-pyrrolo[2,3-d]pyrimidin-4-yl]-2-methyl-phenyl]-3,4-dihydroisoquinolin-1-one], the IC50 in test [1] is 0.021 µM; with mouse splenocytes (setting [2]), greater than 1000 nM.

For `NC(=O)CN1CC=C(c2cc3c(-c4cccc(N5CCOc6cc(C7CC7)cc(F)c6C5=O)c4CO)ccnc3[nH]2)CC1` [Example P-31, 2-[4-[4-[3-(8-cyclopropyl-6-fluoro-5-oxo-2,3-dihydro-1,4-benzoxazepin-4-yl)-2-(hydroxymethyl)phenyl]-1H-pyrrolo[2,3-b]pyridin-2-yl]-3,6-dihydro-2H-pyridin-1-yl]acetamide], the IC50 amounted to 0.0053 µM in test [1] and 52 nM in the test with mouse splenocytes (setting [2]).

Take `CC(C)N1CC(n2cnc(-c3cc4c(-c5cccc(N6CCOc7cc(C8CC8)ccc7C6=O)c5CO)ccnc4[nH]3)c2)C1` [Example P-9, 8-cyclopropyl-4-[2-(hydroxymethyl)-3-[2-[1-(1-isopropylazetidin-3-yl)imidazol-4-yl]-1H-pyrrolo[2,3-b]pyridin-4-yl]phenyl]-2,3-dihydro-1,4-benzoxazepin-5-one]: the IC50 stood at 0.007 µM in test [1] and 104 nM in the test with mouse splenocytes (setting [2]).

As to `Cc1c(-c2ncnc3[nH]c(-c4ccc(C(=O)N5CCC(O)CC5)cc4)cc23)cccc1N1CCOc2cc(C3CC3)ccc2C1=O` [Example K-2, 8-cyclopropyl-4-[3-[6-[4-(4-hydroxypiperidine-1-carbonyl)phenyl]-7H-pyrrolo[2,3-d]pyrimidin-4-yl]-2-methyl-phenyl]-2,3-dihydro-1,4-benzoxazepin-5-one], the IC50 in test [1] came out at 0.032 µM; in the test on mouse splenocytes (setting [2]), 815 nM.

As for `CN1CCN(c2ccc(-c3cc4c(-c5cccc(N6CCOc7cc(C8CC8)ccc7C6=O)c5CO)ncnc4[nH]3)cc2)CC1` [Example C-2, 8-cyclopropyl-4-[2-(hydroxymethyl)-3-[6-[4-(4-methylpiperazin-1-yl)phenyl]-7H-pyrrolo[2,3-d]pyrimidin-4-yl]phenyl]-2,3-dihydro-1,4-benzoxazepin-5-one], the IC50 in test [1] came to 0.012 µM; in the test with mouse splenocytes (setting [2]) it was 36 nM.

In the case of `O=C(CO)N1CC=C(c2cc3c(-c4cccc(N5CCOc6cc(C7CC7)cc(F)c6C5=O)c4CO)ccnc3[nH]2)CC1` [Example P-30, 8-cyclopropyl-6-fluoro-4-[3-[2-[1-(2-hydroxyacetyl)-3,6-dihydro-2H-pyridin-4-yl]-1H-pyrrolo[2,3-b]pyridin-4-yl]-2-(hydroxymethyl)phenyl]-2,3-dihydro-1,4-benzoxazepin-5-one], the values for the IC50 (in test [1]; in the test on mouse splenocytes (setting [2])) were 0.001 µM and 11 nM, respectively.
